ChEMBL document CHEMBL5055633, “Amphipathic Barbiturates as Mimics of Antimicrobial Peptides and the Marine Natural Products Eusynstyelamides with Activity against Multi-resistant Clinical Isolates” (J Med Chem, 2021)

Assays:
Escherichia coli [1] = test: Antimicrobial activity against verona integron-encoded metallo-beta-lactamase-29-producing Escherichia coli 50639799 assessed as reduction in bacterial growth incubated for 48 hrs by microdilution method; type: functional
Staphylococcus aureus [2] = test: Antimicrobial activity against extended spectrum-lactamase-carbapenemas producing Staphylococcus aureus strain 85/2082 assessed as reduction in bacterial growth incubated for 48 hrs by microdilution method; type: functional
Escherichia coli [3] = test: Antimicrobial activity against New Delhi metallo-beta lactamase-1 producing Escherichia coli 50739822 assessed as reduction in bacterial growth incubated for 48 hrs by microdilution method; type: functional
Escherichia coli [4] = test: Antimicrobial activity against oxacillinase-producing Escherichia coli 50579417 assessed as reduction in bacterial growth incubated for 48 hrs by microdilution method; type: functional
Pseudomonas aeruginosa [5] = test: Antimicrobial activity against verona integron-encoded metallo-beta-lactamase producing Pseudomonas aeruginosa 50692520 assessed as reduction in bacterial growth incubated for 48 hrs by microdilution method; type: functional
Staphylococcus aureus [6] = test: Antimicrobial activity against Staphylococcus aureus ATCC 9144 assessed as reduction in bacterial growth incubated for 48 hrs by microdilution susceptibility test; type: functional
[7] = Antimicrobial activity against New Delhi metallo-beta lactamase-1 Klebsiella pneumoniae K66-45 assessed as reduction in bacterial growth incubated for 48 hrs by microdilution method; type: functional
[8] = Antimicrobial activity against verona integron-encoded metallo-beta-lactamase -1 producing Klebsiella pneumoniae 50667959 assessed as reduction in bacterial growth incubated for 48 hrs by microdilution method; type: functional
Acinetobacter baumannii [9] = test: Antimicrobial activity against oxacillinase-23 producing Acinetobacter baumannii K63-58 assessed as reduction in bacterial growth incubated for 48 hrs by microdilution method; type: functional
Staphylococcus aureus [10] = test: Antimicrobial activity against extended spectrum-lactamase-carbapenemas producing Staphylococcus aureus NCTC 10442 assessed as reduction in bacterial growth incubated for 48 hrs by microdilution method; type: functional
Acinetobacter baumannii [11] = test: Antimicrobial activity against oxacillinase-58 producing Acinetobacter baumannii K12-21 assessed as reduction in bacterial growth incubated for 48 hrs by microdilution method; type: functional
[12] = Antimicrobial activity against New Delhi metallo-beta lactamase-1 and oxacillinase -181 producing Klebsiella pneumoniae 50531633 assessed as reduction in bacterial growth incubated for 48 hrs by microdilution method; type: functional
Pseudomonas aeruginosa [13] = test: Antimicrobial activity against verona integron-encoded metallo-beta-lactamase-2 producing Pseudomonas aeruginosa K34-7 assessed as reduction in bacterial growth incubated for 48 hrs by microdilution method; type: functional
[14] = Antimicrobial activity against oxacillinase-245 producing Klebsiella pneumoniae 50625602 assessed as reduction in bacterial growth incubated for 48 hrs by microdilution method; type: functional
Escherichia coli [15] = test: Antimicrobial activity against Escherichia coli ATCC 25922 assessed as reduction in bacterial growth incubated for 48 hrs by microdilution susceptibility test; type: functional
Pseudomonas aeruginosa [16] = test: Antimicrobial activity against New Delhi metallo-beta lactamase-1 producing Pseudomonas aeruginosa 50692172 assessed as reduction in bacterial growth incubated for 48 hrs by microdilution method; type: functional
Pseudomonas aeruginosa [17] = test: Antimicrobial activity against imipenem-type carbapenemase-14 producing Pseudomonas aeruginosa K44-24 assessed as reduction in bacterial growth incubated for 48 hrs by microdilution method; type: functional
Enterococcus faecium [18] = test: Antimicrobial activity against extended spectrum-lactamase-carbapenemas producing Enterococcus faecium strain K36-18 assessed as reduction in bacterial growth incubated for 48 hrs by microdilution method; type: functional
Escherichia coli [19] = test: Antimicrobial activity against imipenem-type carbapenemase-26 producing Escherichia coli 50857972 assessed as reduction in bacterial growth incubated for 48 hrs by microdilution method; type: functional
Escherichia coli [20] = test: Antimicrobial activity against New Delhi metallo-beta lactamase-1 producing Escherichia coli 50676002 assessed as reduction in bacterial growth incubated for 48 hrs by microdilution method; type: functional
Pseudomonas aeruginosa [21] = test: Antimicrobial activity against Pseudomonas aeruginosa PAO1 assessed as reduction in bacterial growth incubated for 48 hrs by microdilution susceptibility test; type: functional
[22] = system: Corynebacterium glutamicum; test: Antimicrobial activity against Corynebacterium glutamicum ATCC 13032 assessed as reduction in bacterial growth incubated for 48 hrs by microdilution susceptibility test; type: functional
MRC5 = test: Cytotoxicity against human MRC5 cells assessed as reduction in cell viability incubated for 24 hrs by colorimetric tetrazolium assay; type: functional, cell-based; conditions: MRC5, 24 h
HepG2 = test: Cytotoxicity against human HepG2 cells assessed as reduction in cell viability incubated for 24 hrs by colorimetric tetrazolium assay; type: functional, cell-based; conditions: HepG2, 24 h
Staphylococcus aureus [23] = test: Antimicrobial activity against extended spectrum-lactamase-carbapenemas producing Staphylococcus aureus N315 assessed as reduction in bacterial growth incubated for 48 hrs by microdilution method; type: functional
Pseudomonas aeruginosa [24] = test: Antimicrobial activity against verona integron-encoded metallo-beta-lactamase-4 producing Pseudomonas aeruginosa K34-73 assessed as reduction in bacterial growth incubated for 48 hrs by microdilution method; type: functional
Enterococcus faecium [25] = test: Antimicrobial activity against extended spectrum-lactamase-carbapenemas producing Enterococcus faecium strain 50673722 assessed as reduction in bacterial growth incubated for 48 hrs by microdilution method; type: functional
Enterococcus faecium [26] = test: Antimicrobial activity against extended spectrum-lactamase-carbapenemas producing Enterococcus faecium strain 50901530 assessed as reduction in bacterial growth incubated for 48 hrs by microdilution method; type: functional
[27] = Hemolytic activity in human erythrocytes incubated for 1 hr by microplate reader; type: functional, cell-based; conditions: erythrocyte
Acinetobacter baumannii [28] = test: Antimicrobial activity against oxacillinase-24 producing Acinetobacter baumannii K55-13 assessed as reduction in bacterial growth incubated for 48 hrs by microdilution method; type: functional
Staphylococcus aureus [29] = test: Antimicrobial activity against extended spectrum-lactamase-carbapenemas producing Staphylococcus aureus strain IHT 99040 assessed as reduction in bacterial growth incubated for 48 hrs by microdilution method; type: functional
Acinetobacter baumannii [30] = test: Antimicrobial activity against oxacillinase-23 producing Acinetobacter baumannii K47-42 assessed as reduction in bacterial growth incubated for 48 hrs by microdilution method; type: functional
[31] = Antimicrobial activity against carbapenemase producing Klebsiella pneumoniae K47-25 assessed as reduction in bacterial growth incubated for 48 hrs by microdilution method; type: functional
Staphylococcus aureus [32] = test: Antimicrobial activity against extended spectrum-lactamase-carbapenemas producing Staphylococcus aureus strain WIS assessed as reduction in bacterial growth incubated for 48 hrs by microdilution method; type: functional
Enterococcus faecium [33] = test: Antimicrobial activity against extended spectrum-lactamase-carbapenemas producing Enterococcus faecium strain 50758899 assessed as reduction in bacterial growth incubated for 48 hrs by microdilution method; type: functional
Enterococcus faecium [34] = test: Antimicrobial activity against extended spectrum-lactamase-carbapenemas producing Enterococcus faecium strain TUH.50-22 assessed as reduction in bacterial growth incubated for 48 hrs by microdilution method; type: functional
Acinetobacter baumannii [35] = test: Antimicrobial activity against oxacillinase-23 producing Acinetobacter baumannii K44-35 assessed as reduction in bacterial growth incubated for 48 hrs by microdilution method; type: functional

Structure (SMILES) | MIC (Escherichia coli [1]) [µg/mL] | MIC (Staphylococcus aureus [2]) [µg/mL] | MIC (Escherichia coli [3]) [µg/mL] | MIC (Escherichia coli [4]) [µg/mL] | MIC (Pseudomonas aeruginosa [5]) [µg/mL] | MIC (Staphylococcus aureus [6]) [µg/mL] | MIC [7] [µg/mL] | MIC [8] [µg/mL] | MIC (Acinetobacter baumannii [9]) [µg/mL] | MIC (Staphylococcus aureus [10]) [µg/mL] | MIC (Acinetobacter baumannii [11]) [µg/mL] | MIC [12] [µg/mL] | MIC (Pseudomonas aeruginosa [13]) [µg/mL] | MIC [14] [µg/mL] | MIC (Escherichia coli [15]) [µg/mL] | MIC (Pseudomonas aeruginosa [16]) [µg/mL] | MIC (Pseudomonas aeruginosa [17]) [µg/mL] | MIC (Enterococcus faecium [18]) [µg/mL] | MIC (Escherichia coli [19]) [µg/mL] | MIC (Escherichia coli [20]) [µg/mL] | also measured
NCCCCN1C(=O)N(CCCCN)C(=O)C(Cc2ccc3ccccc3c2)(Cc2ccc3ccccc3c2)C1=O.O=C(O)C(F)(F)F.O=C(O)C(F)(F)F | 16 | 8 | 16 | 16 | 32 | 8 | > 32 | > 32 | 16 | 8 | 32 | 32 | 32 | > 32 | 16 | 32 | > 32 | 16 | 16 | 16 | MIC (Pseudomonas aeruginosa [21]): 16 µg/mL; MIC [22]: 1 µg/mL; IC50 (MRC5): 2 µg/mL; IC50 (HepG2): 7 µg/mL; MIC (Staphylococcus aureus [23]): 8 µg/mL; MIC (Pseudomonas aeruginosa [24]): 32 µg/mL; MIC (Enterococcus faecium [25]): 16 µg/mL; MIC (Enterococcus faecium [26]): 8 µg/mL; EC50 [27]: 250 µg/mL; MIC (Acinetobacter baumannii [28]): 32 µg/mL; MIC (Staphylococcus aureus [29]): 8 µg/mL; MIC (Acinetobacter baumannii [30]): 32 µg/mL; MIC [31]: > 32 µg/mL; MIC (Staphylococcus aureus [32]): 8 µg/mL; MIC (Enterococcus faecium [33]): 16 µg/mL; MIC (Enterococcus faecium [34]): 8 µg/mL; MIC (Acinetobacter baumannii [35]): 32 µg/mL
CC(C)(C)c1ccc(CC2(Cc3ccc(C(C)(C)C)cc3)C(=O)N(CCCCN)C(=O)N(CCCCN)C2=O)cc1.O=C(O)C(F)(F)F.O=C(O)C(F)(F)F | 8 | 8 | 8 | 8 | > 32 | 4 | 32 | 32 | 16 | 8 | 16 | 16 | > 32 | 16 | 4 | > 32 | > 32 | 8 | 4 | 4 | MIC (Pseudomonas aeruginosa [21]): 8 µg/mL; MIC [22]: 1 µg/mL; IC50 (MRC5): 1 µg/mL; IC50 (HepG2): 3 µg/mL; MIC (Staphylococcus aureus [23]): 8 µg/mL; MIC (Pseudomonas aeruginosa [24]): > 32 µg/mL; MIC (Enterococcus faecium [25]): 8 µg/mL; MIC (Enterococcus faecium [26]): 4 µg/mL; EC50 [27]: 145 µg/mL; MIC (Acinetobacter baumannii [28]): 16 µg/mL; MIC (Staphylococcus aureus [29]): 8 µg/mL; MIC (Acinetobacter baumannii [30]): 16 µg/mL; MIC [31]: > 32 µg/mL; MIC (Staphylococcus aureus [32]): 8 µg/mL; MIC (Enterococcus faecium [33]): 8 µg/mL; MIC (Enterococcus faecium [34]): 8 µg/mL; MIC (Acinetobacter baumannii [35]): 32 µg/mL
